# Patent publication US20070128217A1 (priority 2003, published 2007)
# Experiments:
# [1] = system: control sera (pooled serum of ten healthy LUMC hospital workers; commercial negative donor pooled serum from the Dutch bloodbank); type: binding, human; set-up: Binding of Control serum LUMC to linear peptides / Binding of Control serum Blood-bank to linear peptides / Binding of Control serum LUMC to looped peptides / Binding of Control Serum Blood-Bank to Looped peptides / Binding of Control serum LUMC to linear peptides of the protein M of SARS-CoV Urbani / Binding of Control serum Blood-bank to linear peptides of the protein M of SARS-CoV Urbani / Binding of Control serum LUMC to looped peptides of the protein M of SARS-CoV Urbani / Binding of Control Serum Blood-Bank to Looped peptides of the protein M of SARS-CoV Urbani: unit not given here
# [2] = system: recombinant human anti-SARS-CoV antibody 03-018; type: binding; set-up: Binding of antibody 03-018 to linear peptides of the N protein of SARS-CoV Urbani / Binding of antibody 03-018 to looped/cyclic peptides of the N protein of SARS-CoV Urbani: unit not given here
# [3] = system: antibodies in sera from SARS patients (sera 1a, 1b, 2, 6, 37, 62, London, SARS-yellow, SARS-green); type: binding, human; set-up: Binding of serum 6 to linear peptides of protein X1 of SARS-CoV Urbani / Binding of serum 37 to linear peptides of protein X1 of SARS-CoV Urbani / Binding of serum 6 to looped/cyclic peptide (PEPSCAN-ELISA) / Binding of serum 37 to looped/cyclic peptide (PEPSCAN-ELISA) / Binding of serum 37 to looped/cyclic peptides of protein X1 of SARS-CoV Urbani / Binding of serum 6 to linear peptides of protein X2 / Binding of serum 37 to linear peptides of protein X2 / Binding of serum 37 to looped/cyclic peptides of protein X2 of SARS-CoV Urbani / Binding of serum 6 to linear peptides of protein M of SARS-CoV Urbani / Binding of serum 37 to linear peptides of protein M of SARS-CoV Urbani / Binding of serum 6 to looped/cyclic peptides of protein M of SARS-CoV Urbani / Binding of serum 37 to looped/cyclic peptides of protein M of SARS-CoV Urbani / Binding of serum 6 to linear peptides of protein X3 of SARS-CoV Urbani / Binding of serum 37 to linear peptides of protein X3 of SARS-CoV Urbani / Binding of serum 37 to looped/cyclic peptides of protein X3 of SARS-CoV Urbani / Binding of serum 6 to linear peptides of protein X4 of SARS-CoV Urbani / Binding of serum 37 to linear peptides of protein X4 of SARS-CoV Urbani / Binding of serum 37 to looped/cyclic peptides of protein X4 of SARS-CoV Urbani / Binding of serum 6 to linear peptides of protein X5 of SARS-CoV Urbani / Binding of serum 37 to linear peptides of protein X5 of SARS-CoV Urbani / Binding of serum 37 to looped/cyclic peptides of protein X5 of SARS-CoV Urbani / Binding of serum 6 to linear peptides of protein N of SARS-CoV Urbani / Binding of serum 37 to linear peptides of protein N of SARS-CoV Urbani / Binding of serum 6 to linear peptide (PEPSCAN-ELISA) / Binding of serum 1a to looped/cyclic peptides of protein N of SARS-CoV Urbani / Binding of serum 1b to looped/cyclic peptides of protein N of SARS-CoV Urbani / Binding of serum 2 to looped/cyclic peptides of protein N of SARS-CoV Urbani / Binding of serum 6 to looped/cyclic peptides of protein N of SARS-CoV Urbani / Binding of serum 37 to looped/cyclic peptides of protein N of SARS-CoV Urbani / Binding of serum 62 to looped/cyclic peptides of protein N of SARS-CoV Urbani / Binding of serum London to looped/cyclic peptides of protein N of SARS-CoV Urbani / Binding of serum SARS-green to looped/cyclic peptides of protein N of SARS-CoV Urbani: unit not given here
# [4] = system: rabbit serum obtained by immunizing a rabbit with the SARS-CoV strain Frankfurt 1; type: binding; set-up: Binding of a rabbit serum to linear peptides / Binding of a rabbit serum to looped peptides / Rabbit serum linear peptides / Rabbit serum looped peptides / Binding of a rabbit serum to linear peptides of protein N of SARS-CoV Urbani (Rabbit serum linear peptides) / Binding of a rabbit serum to looped/cyclic peptides of protein N of SARS-CoV Urbani (Rabbit serum looped peptides): unit not given here
sequence,measurement,setting,value
TPKDHIGTRNPNNNA,Binding of Control Serum Blood-Bank to Looped peptides,[1],0.5
same,Binding of Control serum Blood-bank to linear peptides,[1],0.9
same,Binding of Control serum LUMC to linear peptides,[1],0.9
same,Binding of Control serum LUMC to looped peptides,[1],0.6
same,Binding of antibody 03-018 to linear peptides of the N protein of SARS-CoV Urbani,[2],0.1
same,Binding of antibody 03-018 to looped/cyclic peptides of the N protein of SARS-CoV Urbani,[2],0.2
same,Binding of serum 1a to linear peptides of protein N of SARS-CoV Urbani,[3],0.3
same,Binding of serum 1a to looped/cyclic peptides of protein N of SARS-CoV Urbani,[3],0.3
same,Binding of serum 1b to linear peptides of protein N of SARS-CoV Urbani,[3],0.1
same,Binding of serum 1b to looped/cyclic peptides of protein N of SARS-CoV Urbani,[3],0.3
same,Binding of serum 2 to linear peptides of protein N of SARS-CoV Urbani,[3],0.3
same,Binding of serum 2 to looped/cyclic peptides of protein N of SARS-CoV Urbani,[3],0.3
same,Binding of serum 6 to linear peptides of protein N of SARS-CoV Urbani,[3],0.2
same,Binding of serum 6 to looped/cyclic peptides of protein N of SARS-CoV Urbani,[3],0.2
same,Binding of serum 37 to linear peptides of protein N of SARS-CoV Urbani,[3],0.9
same,Binding of serum 37 to looped/cyclic peptides of protein N of SARS-CoV Urbani,[3],0.5
same,Binding of serum 62 to linear peptides of protein N of SARS-CoV Urbani,[3],0.8
same,Binding of serum 62 to looped/cyclic peptides of protein N of SARS-CoV Urbani,[3],0.3
same,Binding of serum London to linear peptides of protein N of SARS-CoV Urbani,[3],0.5
same,Binding of serum London to looped/cyclic peptides of protein N of SARS-CoV Urbani,[3],0.3
same,Binding of serum SARS-green to linear peptides of protein N of SARS-CoV Urbani,[3],0.4
same,Binding of serum SARS-green to looped/cyclic peptides of protein N of SARS-CoV Urbani,[3],0.3
same,Binding of serum SARS-yellow to linear peptides of protein N of SARS-CoV Urbani,[3],0.7
same,Binding of serum SARS-yellow to looped/cyclic peptides of protein N of SARS-CoV Urbani,[3],0.3
same,Binding of a rabbit serum to linear peptides of protein N of SARS-CoV Urbani (Rabbit serum linear peptides),[4],0.1
same,Binding of a rabbit serum to looped/cyclic peptides of protein N of SARS-CoV Urbani (Rabbit serum looped peptides),[4],0.4
TPSGTWLTYHGAIKL,Control Serum Blood-Bank Looped peptides,[1],0.7
same,Control serum Blood-bank linear peptides,[1],0.8
same,Control serum LUMC linear peptides,[1],0.6
same,Control serum LUMC looped peptides,[1],0.5
same,Binding of antibody 03-018 to linear peptides of the N protein of SARS-CoV Urbani,[2],0.1
same,Binding of antibody 03-018 to looped/cyclic peptides of the N protein of SARS-CoV Urbani,[2],0.2
same,Binding of serum 1a to linear peptides of protein N of SARS-CoV Urbani,[3],0.2
same,Binding of serum 1a to looped/cyclic peptides of protein N of SARS-CoV Urbani,[3],0.4
same,Binding of serum 1b to linear peptides of protein N of SARS-CoV Urbani,[3],0.1
same,Binding of serum 1b to looped/cyclic peptides of protein N of SARS-CoV Urbani,[3],0.2
same,Binding of serum 2 to linear peptides of protein N of SARS-CoV Urbani,[3],0.2
same,Binding of serum 2 to looped/cyclic peptides of protein N of SARS-CoV Urbani,[3],0.4
same,Binding of serum 6 to linear peptides of protein N of SARS-CoV Urbani,[3],0.2
same,Binding of serum 6 to looped/cyclic peptides of protein N of SARS-CoV Urbani,[3],0.2
same,Binding of serum 37 to linear peptides of protein N of SARS-CoV Urbani,[3],0.7
same,Binding of serum 37 to looped/cyclic peptides of protein N of SARS-CoV Urbani,[3],0.8
same,Binding of serum 62 to linear peptides of protein N of SARS-CoV Urbani,[3],0.6
same,Binding of serum 62 to looped/cyclic peptides of protein N of SARS-CoV Urbani,[3],0.8
same,Binding of serum London to linear peptides of protein N of SARS-CoV Urbani,[3],0.7
same,Binding of serum London to looped/cyclic peptides of protein N of SARS-CoV Urbani,[3],0.5
same,Binding of serum SARS-green to linear peptides of protein N of SARS-CoV Urbani,[3],0.3
same,Binding of serum SARS-green to looped/cyclic peptides of protein N of SARS-CoV Urbani,[3],0.3
same,Binding of serum SARS-yellow to linear peptides of protein N of SARS-CoV Urbani,[3],0.5
same,Binding of serum SARS-yellow to looped/cyclic peptides of protein N of SARS-CoV Urbani,[3],0.4
same,Binding of a rabbit serum to linear peptides of protein N of SARS-CoV Urbani (Rabbit serum linear peptides),[4],0.1
same,Binding of a rabbit serum to looped/cyclic peptides of protein N of SARS-CoV Urbani (Rabbit serum looped peptides),[4],0.4
TYHGAIKLDDKDPQF,Control Serum Blood-Bank Looped peptides,[1],0.4
same,Control serum Blood-bank linear peptides,[1],0.8
same,Control serum LUMC linear peptides,[1],0.7
same,Control serum LUMC looped peptides,[1],0.4
same,Binding of antibody 03-018 to linear peptides of the N protein of SARS-CoV Urbani,[2],0.1
same,Binding of antibody 03-018 to looped/cyclic peptides of the N protein of SARS-CoV Urbani,[2],0.1
same,Binding of serum 1a to linear peptides of protein N of SARS-CoV Urbani,[3],0.3
same,Binding of serum 1a to looped/cyclic peptides of protein N of SARS-CoV Urbani,[3],0.2
same,Binding of serum 1b to linear peptides of protein N of SARS-CoV Urbani,[3],0.1
same,Binding of serum 1b to looped/cyclic peptides of protein N of SARS-CoV Urbani,[3],0.1
same,Binding of serum 2 to linear peptides of protein N of SARS-CoV Urbani,[3],0.1
same,Binding of serum 2 to looped/cyclic peptides of protein N of SARS-CoV Urbani,[3],0.2
same,Binding of serum 6 to linear peptides of protein N of SARS-CoV Urbani,[3],0.2
same,Binding of serum 6 to looped/cyclic peptides of protein N of SARS-CoV Urbani,[3],0.1
same,Binding of serum 37 to linear peptides of protein N of SARS-CoV Urbani,[3],0.8
same,Binding of serum 37 to looped/cyclic peptides of protein N of SARS-CoV Urbani,[3],0.3
same,Binding of serum 62 to linear peptides of protein N of SARS-CoV Urbani,[3],1.1
same,Binding of serum 62 to looped/cyclic peptides of protein N of SARS-CoV Urbani,[3],0.2
same,Binding of serum London to linear peptides of protein N of SARS-CoV Urbani,[3],0.6
same,Binding of serum London to looped/cyclic peptides of protein N of SARS-CoV Urbani,[3],0.3
same,Binding of serum SARS-green to linear peptides of protein N of SARS-CoV Urbani,[3],0.4
same,Binding of serum SARS-green to looped/cyclic peptides of protein N of SARS-CoV Urbani,[3],0.0
same,Binding of serum SARS-yellow to linear peptides of protein N of SARS-CoV Urbani,[3],0.7
same,Binding of serum SARS-yellow to looped/cyclic peptides of protein N of SARS-CoV Urbani,[3],0.2
same,Binding of a rabbit serum to linear peptides of protein N of SARS-CoV Urbani (Rabbit serum linear peptides),[4],0.1
same,Binding of a rabbit serum to looped/cyclic peptides of protein N of SARS-CoV Urbani (Rabbit serum looped peptides),[4],0.2
